The values that follow come from patent US12098145B2 (Libra Therapeutics, Inc., priority 2022, dated 2024).

pEC50: −log10 of the molar value. Like-named read-outs stand apart in the source and are kept apart here.

In one assay the test system is TFEB. As to the kind of experiment: TFEB translocation assay (TFEB reporter in U2OS cells, imaging). Type of assay: cell-based. The note with it: Homo sapiens; U2OS cell line with TFEB reporter, 2 hours incubation, nucleus to cytoplasm ratio, normalized to Torin-1; read-out: TFEB Translocation pEC50 (converted). The method in brief: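 U2OS cells stably expressing mRFP-fused TFEB reporter, switched to Opti-MEM then treated 2 h at 37 °C with compounds (0.5% DMSO, 0.015% Tween 80). Hoechst-stained, PFA-fixed cells imaged at 20×; nucleus/cytoplasm intensity ratio per well normalized to Torin-1 (100%) and DMSO (0%).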

The target of a further assay is T1, TRPML1 (Homo sapiens, UniProt Q9GZU1).
T1 construct: expressed in transfected cells; host or cells: HEK T-REx cells stably expressing GCaMP6f and TRPML1
T1 sequence (Q9GZU1 whole entry): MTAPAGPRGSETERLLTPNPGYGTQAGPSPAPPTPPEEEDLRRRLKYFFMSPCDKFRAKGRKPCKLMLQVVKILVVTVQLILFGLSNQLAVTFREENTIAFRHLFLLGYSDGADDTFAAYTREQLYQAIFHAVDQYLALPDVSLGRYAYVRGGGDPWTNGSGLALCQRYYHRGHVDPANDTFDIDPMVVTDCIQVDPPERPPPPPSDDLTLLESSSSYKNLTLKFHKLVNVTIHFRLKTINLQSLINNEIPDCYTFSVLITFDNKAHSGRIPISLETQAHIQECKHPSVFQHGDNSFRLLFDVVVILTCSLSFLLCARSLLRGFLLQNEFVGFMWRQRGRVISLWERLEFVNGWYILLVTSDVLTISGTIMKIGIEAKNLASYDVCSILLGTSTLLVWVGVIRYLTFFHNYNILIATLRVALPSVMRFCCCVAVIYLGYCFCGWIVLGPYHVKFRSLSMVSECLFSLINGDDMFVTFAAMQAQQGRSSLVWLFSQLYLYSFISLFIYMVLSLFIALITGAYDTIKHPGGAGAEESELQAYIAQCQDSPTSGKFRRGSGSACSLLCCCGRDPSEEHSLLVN
As to the kind of experiment: Cellular TRPML1 assay (FLIPR, GCaMP6f calcium read-out). The conditions noted are these: for EC50: HEKT-REx/GCaMP6f/TRPML1 cells, FLIPR TETRA, kinetic response over 300 seconds, read-out: TRPML1 FLIPR pEC50 (converted). The assay is classed as cell-based. The essentials:
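HEK T-REx cells stably expressing TRPML1 and GCaMP6f, seeded 24 h before in Optimem + 0.5% FBS. After ~10 min pre-incubation at room temperature, compounds in Ca2+-free Tyrode's buffer were injected on FLIPR Tetra (final DMSO 0.5%). Calcium fluorescence kinetics followed for 300 s.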

Usually pEC50 stands for −log10 of the EC50, conventionally taken in molar units. As for `CCC1(OC)CN(c2nc(C(=O)Nc3cc(F)c(N4C5CCCC4CC5)c(F)c3)c(CC(F)(F)F)o2)C1` [Example 206, N-(4-(8-azabicyclo[3.2.1]octan-8-yl)-3,5-difluorophenyl)-2-(3-ethyl-3-methoxyazetidin-1-yl)-5-(2,2,2-trifluoroethyl)oxazole-4-carboxamide], the EC50 with TFEB is 10 to 1000 nM. For the same compound, the pEC50 on TRPML1 was 6.00 to 8.00.

On to `COC1(C)CN(c2nc(C(=O)Nc3cc(F)c(N4C5CCCC4CC5)c(F)c3)c(CC(F)(F)F)o2)C1` [Example 207, N-(4-(8-azabicyclo[3.2.1]octan-8-yl)-3,5-difluorophenyl)-2-(3-methoxy-3-methylazetidin-1-yl)-5-(2,2,2-trifluoroethyl)oxazole-4-carboxamide], for which the EC50 with TFEB was 10 to 1000 nM. For the same compound, at TRPML1, the pEC50 is 6.00 to 8.00.

On to `CCc1oc(N2CC(CC)(OC)C2)nc1C(=O)Nc1cc(F)c(O[C@@H]2C[C@@H]3C[C@@H]3C2)c(Cl)c1` [Example 219, N-(4-(cis-bicyclo[3.1.0]hexan-3-yloxy)-3-chloro-5-fluorophenyl)-5-ethyl-2-(3-ethyl-3-methoxyazetidin-1-yl)oxazole-4-carboxamide], for which the EC50 in the assay with TFEB and at TRPML1 was 10 to 1000 nM throughout.

With `CCc1oc(N2CC(CC)(CC)C2)nc1C(=O)Nc1cc(F)c(O[C@@H]2C[C@@H]3C[C@@H]3C2)c(Cl)c1` [Example 221, N-(4-(cis-bicyclo[3.1.0]hexan-3-yloxy)-3-chloro-5-fluorophenyl)-2-(3,3-diethylazetidin-1-yl)-5-ethyloxazole-4-carboxamide], the EC50 in the assay on TFEB and at TRPML1 was 10 to 1000 nM in each case.

In the case of `CCc1oc(N2CC(C)(OC)C2)nc1C(=O)Nc1cc(F)c(O[C@@H]2C[C@@H]3C[C@@H]3C2)c(Cl)c1` [Example 223, N-(4-(cis-bicyclo[3.1.0]hexan-3-yloxy)-3-chloro-5-fluorophenyl)-5-ethyl-2-(3-methoxy-3-methylazetidin-1-yl)oxazole-4-carboxamide], the EC50 in the assay on TFEB and on TRPML1 was 10 to 1000 nM throughout.

As for `CCc1oc(N2CC(C)(CO)C2)nc1C(=O)Nc1cc(C)c(OC2CC3CC(C3)C2)c(F)c1` (centres unmarked) [Example 224, N-(4-(bicyclo[3.1.1]heptan-3-yloxy)-3-fluoro-5-methylphenyl)-5-ethyl-2-(3-(hydroxymethyl)-3-methylazetidin-1-yl)oxazole-4-carboxamide], the EC50 in the assay on TFEB and on TRPML1 was 10 to 1000 nM throughout.

With `CCc1oc(N2CCCC2)nc1C(=O)Nc1cc(C)c(OC2CC3CC(C3)C2)c(F)c1` (centres unmarked) [Example 225, N-(4-(bicyclo[3.1.1]heptan-3-yloxy)-3-fluoro-5-methylphenyl)-5-ethyl-2-(pyrrolidin-1-yl)oxazole-4-carboxamide], the EC50 with TFEB and on TRPML1 was 10 to 1000 nM throughout.

For `CCc1oc(N2CC(CC)(OC)C2)nc1C(=O)Nc1cc(C)c(O[C@@H]2C[C@@H]3C[C@@H]3C2)c(F)c1` [Example 227, N-(4-(cis-bicyclo[3.1.0]hexan-3-yloxy)-3-fluoro-5-methylphenyl)-5-ethyl-2-(3-ethyl-3-methoxyazetidin-1-yl)oxazole-4-carboxamide], the EC50 in the assay with TFEB and on TRPML1 was 10 to 1000 nM throughout.

With `CCc1oc(N2CC(CC)(OC)C2)nc1C(=O)Nc1ccc(OC2CC3CC(C3)C2)c(F)c1` (centres unmarked) [Example 228, N-(4-(bicyclo[3.1.1]heptan-3-yloxy)-3-fluorophenyl)-5-ethyl-2-(3-ethyl-3-methoxyazetidin-1-yl)oxazole-4-carboxamide], the EC50 in the assay with TFEB and at TRPML1 was 10 to 1000 nM in each case.

For `CCc1oc(N2CCCC2)nc1C(=O)Nc1cc(F)c(OC2CC3CC(C3)C2)c(F)c1` (centres unmarked) [Example 229, N-(4-(bicyclo[3.1.1]heptan-3-yloxy)-3,5-difluorophenyl)-5-ethyl-2-(pyrrolidin-1-yl)oxazole-4-carboxamide], the EC50 with TFEB and on TRPML1 was 10 to 1000 nM throughout.

Take `CCc1oc(N2CC(CC)(OC)C2)nc1C(=O)Nc1cc(F)c(OC2CC3CC(C3)C2)c(F)c1` (centres unmarked) [Example 230, N-(4-(bicyclo[3.1.1]heptan-3-yloxy)-3,5-difluorophenyl)-5-ethyl-2-(3-ethyl-3-methoxyazetidin-1-yl)oxazole-4-carboxamide]: the EC50 with TFEB and at TRPML1 was 10 to 1000 nM in each case.

Turning to `CCc1oc(N2CCC3(CC3)C2)nc1C(=O)Nc1cc(F)c(O[C@@H]2C[C@@H]3C[C@@H]3C2)c(F)c1` [Example 235, N-(4-(cis-bicyclo[3.1.0]hexan-3-yloxy)-3,5-difluorophenyl)-5-ethyl-2-(5-azaspiro[2.4]heptan-5-yl)oxazole-4-carboxamide], the EC50 with TFEB and on TRPML1 was 10 to 1000 nM throughout.

With `CCc1oc(N2CC(CC)(OC)C2)nc1C(=O)Nc1cc(F)c(O[C@@H]2C[C@@H]3C[C@@H]3C2)c(F)c1` [Example 238, N-(4-(cis-bicyclo[3.1.0]hexan-3-yloxy)-3,5-difluorophenyl)-5-ethyl-2-(3-ethyl-3-methoxyazetidin-1-yl)oxazole-4-carboxamide], the EC50 with TFEB and at TRPML1 was 10 to 1000 nM each time.

As for `CCc1oc(N2CC(C)(OC)C2)nc1C(=O)Nc1cc(F)c(O[C@@H]2C[C@@H]3C[C@@H]3C2)c(F)c1` [Example 239, N-(4-(cis-bicyclo[3.1.0]hexan-3-yloxy)-3,5-difluorophenyl)-5-ethyl-2-(3-methoxy-3-methylazetidin-1-yl)oxazole-4-carboxamide], the EC50 with TFEB and on TRPML1 was 10 to 1000 nM each time.

`CCc1oc(N2CC3CCCC3C2)nc1C(=O)Nc1cc(F)c(OC2CC3C[C@H]3C2)c(F)c1` (stereo partly drawn) [Example 240, N-(4-(cis-bicyclo[3.1.0]hexan-3-yloxy)-3,5-difluorophenyl)-5-ethyl-2-(hexahydrocyclopenta[c]pyrrol-2(1H)-yl)oxazole-4-carboxamide]: the EC50 in the assay on TFEB and on TRPML1 was 10 to 1000 nM throughout.

As to `CCc1oc(N2CC3CCC3C2)nc1C(=O)Nc1cc(F)c(OC2CC3C[C@H]3C2)c(F)c1` (stereo partly drawn) [Example 241, N-(4-(cis-bicyclo[3.1.0]hexan-3-yloxy)-3,5-difluorophenyl)-2-(3-azabicyclo[3.2.0]heptan-3-yl)-5-ethyloxazole-4-carboxamide], the EC50 in the assay on TFEB and at TRPML1 was 10 to 1000 nM throughout.

In the case of `CCc1oc(N2CCCC2)nc1C(=O)Nc1cc(F)c(O[C@@H]2C[C@@H]3C[C@@H]3C2)c(F)c1` [Example 244, N-(4-(cis-bicyclo[3.1.0]hexan-3-yloxy)-3,5-difluorophenyl)-5-ethyl-2-(pyrrolidin-1-yl)oxazole-4-carboxamide], the EC50 in the assay with TFEB and at TRPML1 was 10 to 1000 nM in each case.

For `CCc1oc(N2CC(CC)(CC)C2)nc1C(=O)Nc1ccc(O[C@@H]2C[C@@H]3C[C@@H]3C2)c(F)c1` [Example 245, N-(4-(cis-bicyclo[3.1.0]hexan-3-yloxy)-3-fluorophenyl)-2-(3,3-diethylazetidin-1-yl)-5-ethyloxazole-4-carboxamide], the EC50 in the assay on TFEB and on TRPML1 was 10 to 1000 nM in each case.

For `CCc1oc(N2CC3CCC3C2)nc1C(=O)Nc1ccc(OC2CC3C[C@H]3C2)c(F)c1` (stereo partly drawn) [Example 247, N-(4-(cis-bicyclo[3.1.0]hexan-3-yloxy)-3-fluorophenyl)-2-(3-azabicyclo[3.2.0]heptan-3-yl)-5-ethyloxazole-4-carboxamide], the EC50 with TFEB and at TRPML1 was 10 to 1000 nM in each case.

In the case of `CCc1oc(N2CC(C)(OC)C2)nc1C(=O)Nc1ccc(O[C@@H]2C[C@@H]3C[C@@H]3C2)c(Cl)c1` [Example 249, N-(4-(cis-bicyclo[3.1.0]hexan-3-yloxy)-3-chlorophenyl)-5-ethyl-2-(3-methoxy-3-methylazetidin-1-yl)oxazole-4-carboxamide], the EC50 in the assay on TFEB and on TRPML1 was 10 to 1000 nM throughout.

As to `CCc1oc(N2CC(CC)(OC)C2)nc1C(=O)Nc1cc(F)c(N2CC3CC(C3)C2)c(F)c1` [Example 254, N-(4-(3-azabicyclo[3.1.1]heptan-3-yl)-3,5-difluorophenyl)-5-ethyl-2-(3-ethyl-3-methoxyazetidin-1-yl)oxazole-4-carboxamide], the EC50 with TFEB is 10 to 1000 nM. For the same compound, the pEC50 at TRPML1 is 6.00 to 8.00.

As for `CCc1oc(N2CCCC2)nc1C(=O)Nc1cc(F)c(N2CC3CC(C3)C2)c(F)c1` [Example 255, N-(4-(3-azabicyclo[3.1.1]heptan-3-yl)-3,5-difluorophenyl)-5-ethyl-2-(pyrrolidin-1-yl)oxazole-4-carboxamide], the EC50 with TFEB is 10 to 1000 nM. Moreover, the pEC50 at TRPML1 is 6.00 to 8.00.

For the compound `CCc1oc(N2CC(C)(C)C2)nc1C(=O)Nc1cc(F)c(N2CC3CC(C3)C2)c(F)c1` [Example 256, N-(4-(3-azabicyclo[3.1.1]heptan-3-yl)-3,5-difluorophenyl)-2-(3,3-dimethylazetidin-1-yl)-5-ethyloxazole-4-carboxamide], the EC50 with TFEB is 10 to 1000 nM. Also, the pEC50 at TRPML1 is 6.00 to 8.00.

For `CCc1oc(N2CC3(C2)CC(F)(F)C3)nc1C(=O)Nc1cc(F)c(N2CC3CC(C3)C2)c(F)c1` [Example 259, N-(4-(3-azabicyclo[3.1.1]heptan-3-yl)-3,5-difluorophenyl)-2-(6,6-difluoro-2-azaspiro[3.3]heptan-2-yl)-5-ethyloxazole-4-carboxamide], the EC50 with TFEB is 10 to 1000 nM; at TRPML1, 1000 to 10000 nM.

As for `CCC1(CC)CN(c2nc(C(=O)Nc3cc(C)c(OC4CC5CC(C5)C4)c(O)c3)c(CC(F)(F)F)o2)C1` (centres unmarked) [Example 260, N-(4-(bicyclo[3.1.1]heptan-3-yloxy)-3-hydroxy-5-methylphenyl)-2-(3,3-diethylazetidin-1-yl)-5-(2,2,2-trifluoroethyl)oxazole-4-carboxamide], the EC50 with TFEB and on TRPML1 was 10 to 1000 nM throughout.
